Measurements reported in ChEMBL document CHEMBL1130884, “Synthesis of novel antifungal agents (2)” (1998).
Converted amounts (≈) assume the structure as drawn.

Key:
Aspergillus fumigatus = assay: Compound was tested in vitro for antifungal activity against Aspergillus fumigatus (CF1003); assay type: functional
Candida albicans = assay: Compound was tested for in vitro antifungal activity against Candida albicans (CY3003); assay type: functional
Mus musculus = assay: Compound was tested for antifungal activity by measuring systemic candidosis in mice on 7th day upon single peroral administration; assay type: functional; conditions: po
Cryptococcus neoformans = assay: Compound was tested for in vitro antifungal activity against Cryptococcus neoformans (CY1057)

SMILES | IC80 (Aspergillus fumigatus) | IC80 (Candida albicans) | ED50 (Mus musculus) | IC80 (Cryptococcus neoformans)
CSCC[C@]1(C)CC[C@@H](COc2ccc(OC(C)(C)C)cc2)[C@H](Cn2cncn2)/C1=N/O | 0.45 µg/mL (≈ 0.977 µM) | 0.18 µg/mL (≈ 0.391 µM) | > 100 mg/kg | 21 µg/mL (≈ 45.6 µM)
CO/N=C1/[C@@H](Cn2cncn2)[C@H](COc2ccc(OC(C)(C)C)cc2)CC[C@@]1(C)CCSc1ncccn1 | 2.6 µg/mL (≈ 4.83 µM) | 0.85 µg/mL (≈ 1.58 µM) | > 100 mg/kg | 1.1 µg/mL (≈ 2.04 µM)
CO/N=C1/[C@@H](Cn2cncn2)[C@H](COc2ccc(OC(C)(C)C)cc2)CC[C@@]1(C)CCn1ccnc1 | 4.6 µg/mL (≈ 9.3 µM) | 0.22 µg/mL (≈ 0.445 µM) | > 100 mg/kg | 13 µg/mL (≈ 26.3 µM)
COC1[C@@H](Cn2cncn2)[C@H](COc2ccc(OC(C)(C)C)cc2)CC[C@@]1(C)CCS(C)(=O)=O (stereo partly specified) | > 200 µg/mL | 0.7 µg/mL (≈ 1.42 µM) | 50 mg/kg | 0.38 µg/mL (≈ 0.77 µM)
CO[C@@H]1[C@@H](Cn2cncn2)[C@H](COc2ccc(OC(C)(C)C)cc2)CC[C@@]1(C)CCSc1nccn1C | 36 µg/mL (≈ 68.2 µM) | 0.5 µg/mL (≈ 0.947 µM) | 50 mg/kg | 0.9 µg/mL (≈ 1.71 µM)
COC1[C@@H](Cn2cncn2)[C@H](COc2ccc(OC(C)(C)C)cc2)CC[C@@]1(C)CCN1CCOCC1 (stereo partly specified) | 158 µg/mL (≈ 316 µM) | 0.03 µg/mL (≈ 0.0599 µM) | 50 mg/kg | 0.02 µg/mL (≈ 0.0399 µM)
OC(Cn1cncn1)(Cn1cncn1)c1ccc(F)cc1F [FLUCONAZOLE] | > 200 µg/mL | 1.4 µg/mL (≈ 4.57 µM) | 5.4 mg/kg | 3.6 µg/mL (≈ 11.8 µM)
COCC[C@]1(C)CC[C@@H](COc2ccc(OC(C)(C)C)cc2)[C@H](Cn2cncn2)/C1=N/OC | 0.6 µg/mL (≈ 1.31 µM) | 0.05 µg/mL (≈ 0.109 µM) | > 100 mg/kg | 1 µg/mL (≈ 2.18 µM)
COC1[C@@H](Cn2cncn2)[C@H](COc2ccc(OC(C)(C)C)cc2)CC[C@@]1(C)CCn1ccnc1 (stereo partly specified) | 84 µg/mL (≈ 174 µM) | 0.08 µg/mL (≈ 0.166 µM) | 50 mg/kg | 0.24 µg/mL (≈ 0.498 µM)
